Laboratory results from patent US10093623B2, “Cyclic amides as MetAP-2 inhibitors” (MERCK PATENT GmbH, priority 2012, dated 2018).

biological target: MetAP-2 (Homo sapiens, UniProt P50579); experiment: MetAP-2 activity measurement (coupled enzymatic reactions, Met-Arg-Ser substrate, dianisidine detection at 450 nm); assay type: biochemical; settings: Inhibition of MetAP-2; read-out: IC50 enzyme
Outline: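 Rate read from the linear part of the 450 nm absorbance trace. Dianisidine oxidation by peroxidase reports H2O2 made when amino acid oxidase acts on methionine cleaved from MAS tripeptide, one mol dye per mol Met; extinction coefficient gives molar activity.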

MetAP-2, sequence (P50579 whole entry, species assumed): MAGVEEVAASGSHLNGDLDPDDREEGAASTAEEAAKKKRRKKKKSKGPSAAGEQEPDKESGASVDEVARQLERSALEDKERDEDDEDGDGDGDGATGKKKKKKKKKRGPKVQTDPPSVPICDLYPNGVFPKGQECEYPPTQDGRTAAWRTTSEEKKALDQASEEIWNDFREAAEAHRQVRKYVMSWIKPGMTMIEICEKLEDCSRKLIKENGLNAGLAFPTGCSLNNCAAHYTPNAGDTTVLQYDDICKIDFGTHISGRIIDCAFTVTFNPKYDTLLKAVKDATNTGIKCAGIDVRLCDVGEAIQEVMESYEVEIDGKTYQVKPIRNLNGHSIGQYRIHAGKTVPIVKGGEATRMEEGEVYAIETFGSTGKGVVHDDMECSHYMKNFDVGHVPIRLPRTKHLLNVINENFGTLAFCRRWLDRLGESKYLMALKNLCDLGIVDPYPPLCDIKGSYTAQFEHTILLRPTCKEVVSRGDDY

IC50, > 10 µM:
O=C(NCc1cccc(F)c1)[C@]1(O)CCCN(Cc2cccc(F)c2F)C1=O [A261, N-(3-Fluorobenzyl)-(R)-1-(2,3-difluorobenzyl)-3-hydroxy-2-oxo-piperidine-3-carboxamide]
O=C(O)CN1CCC(O)(C(=O)NCc2cc(F)cc(Cl)c2)C1=O (centres unmarked) [A203, [3-(3-Chloro-5-fluorobenzylcarbamoyl)-3-hydroxy-2-oxopyrrolidin-1-yl]-acetic acid]
O=C1NCCc2cc(N3CC[C@@](O)(C(=O)NCc4cc(F)cc(Cl)c4)C3=O)ccc21 [A105, N-(3-Chloro-5-fluorobenzyl)-(R)-3-hydroxy-2-oxo-1-(1-oxo-1,2,3,4-tetrahydroisoquinolin-6-yl)pyrrolidine-3-carboxamide]
O=C(NC1CCC1)c1cccc(N2CC[C@@](O)(C(=O)NCc3cc(F)cc(Cl)c3)C2=O)c1 [A164, N-(3-Chloro-5-fluorobenzyl)-(R)-1-(3-cyclobutylcarbamoyl-phenyl)-3-hydroxy-2-oxo-pyrrolidine-3-carboxamide]
O=C1CCc2cc(N3CC[C@@](O)(C(=O)NCCc4cc(F)cc(Cl)c4)C3=O)ccc2N1 [A150, N-[2-(3-Chloro-5-fluorophenyl)-ethyl]-(R)-3-hydroxy-2-oxo-1-(2-oxo-1,2,3,4-tetrahydroquinolin-6-yl)pyrrolidine-3-carboxamide]
CN(C)C(=O)c1cc2cc(N3CC[C@@](O)(C(=O)NCc4cc(F)cc(Cl)c4)C3=O)ccc2[nH]1 [B90, N,N-Dimethyl-5-[(R)-3-(3-chloro-5-fluorobenzylcarbamoyl)-3-hydroxy-2-oxopyrrolidin-1-yl]-1H-indole-2-carboxamide]
OC1(CNCc2cc(F)cc(Cl)c2)CCN(Cc2ccccc2)C1 (centres unmarked) [B30, 1-Benzyl-3-[(3-chloro-5-fluorobenzylamino)methyl]-pyrrolidin-3-ol]
OC1(CNCc2cc(F)cc(F)c2)CCCN(Cc2ccccc2)C1 (centres unmarked) [B44, 1-Benzyl-3-[(3,5-difluorobenzylamino)methyl]-piperidin-3-ol]
O=C(NCc1cc(F)cc(Cl)c1)C1(O)CCN([C@H]2[C@@H]3CNC[C@@H]32)C1=O (stereo partly drawn) [A229, N-(3-Chloro-5-fluorobenzyl)-1-(1S,5R,6S)-3-azabicyclo-[3.1.0]hex-6-yl-3-hydroxy-2-oxo-pyrrolidine-3-carboxamide]

IC50, 1 to 10 µM:
O=C(N1Cc2ccccc2C1)C1(O)CCN(c2ccccc2)C1=O (centres unmarked) [A267, 3-(1,3-dihydroisoindole-2-carbonyl)-3-hydroxy-1-phenylpyrrolidin-2-one]
O=C(NCc1cc(F)cc(Cl)c1)C1(O)CCN(CCc2ccc(F)cc2F)C1=O (centres unmarked) [A237, N-(3-Chloro-5-fluorobenzyl)-1-[2-(2,4-Difluorophenyl)ethyl]-3-hydroxy-2-oxopyrrolidine-3-carboxamide]
O=C(NCc1cc(F)cc(Cl)c1)[C@@]1(O)CCCCN(c2ccccc2)C1=O [A66, N-(3-chloro-5-fluorobenzyl)-(S)-3-hydroxy-2-oxo-1-phenylazepane-3-carboxamide]

IC50, 0.01 to 1 µM:
O=C(NC1CCC1)c1cccc(N2CCC(O)(C(=O)NCc3cc(F)cc(Cl)c3)C2=O)c1 (centres unmarked) [A76, N-(3-Chloro-5-fluorobenzyl)-1-(3-cyclobutylcarbamoylphenyl)-3-hydroxy-2-oxopyrrolidine-3-carboxamide]
O=C(NCc1cc(F)cc(Cl)c1)[C@@]1(O)CCN(c2cnc3[nH]cnc3c2)C1=O [B92, N-(3-Chloro-5-fluorobenzyl)-(S)-3-hydroxy-1-(3H-imidazo-[4,5-b]pyridin-6-yl)-2-oxo-pyrrolidine-3-carboxamide]
O=C(NCCc1cccc(F)c1)[C@@]1(O)CCN(c2ccc3[nH]ccc3c2)C1=O [B10]
CNC(=O)c1cccc(N2CCC(O)(C(=O)NCc3cc(F)cc(Cl)c3)C2=O)c1 (centres unmarked) [A133, N-(3-Chloro-5-fluorobenzyl)-3-hydroxy-1-(3-methylcarbamoyl-phenyl)-2-oxopyrrolidine-3-carboxamide]
O=C(NCc1cc(F)cc(Cl)c1)[C@@]1(O)CCN(Cc2ccccc2)C1=O [A140, N-(3-Chloro-5-fluorobenzyl)-(S)-1-benzyl-3-hydroxy-2-oxo-pyrrolidine-3-carboxamide]
O=C(NCc1cc(F)cc(Cl)c1)[C@@]1(O)CCN(c2cnc3[nH]c(C(F)(F)F)cc3c2)C1=O [B83, N-(3-Chloro-5-fluorobenzyl)-(S)-3-hydroxy-2-oxo-1-(2-trifluoromethyl-1H-pyrrolo-[2,3-b]pyridin-5-yl)pyrrolidine-3-carboxamide]
O=C1N(CC2CCCCC2)CCC[C@]1(O)CNCc1cc(F)cc(Cl)c1 [B63, (S)-3-[(3-Chloro-5-fluorobenzylamino)methyl]-1-cyclohexylmethyl-3-hydroxy-piperidin-2-one]
O=C1CCc2cc(N3CC[C@](O)(C(=O)NCc4cc(Cl)ccc4F)C3=O)ccc2N1 [B4, N-(5-Chloro-2-fluorobenzyl)-(S)-3-hydroxy-2-oxo-1-(2-oxo-1,2,3,4-tetrahydroquinolin-6-yl)-pyrrolidine-3-carboxamide]
O=C1CCc2cc(N3CCC(O)(C(=O)NCc4cccc(F)c4Cl)C3=O)ccc2N1 (centres unmarked) [A196, N-(2-Chloro-3-fluorobenzyl)-3-hydroxy-2-oxo-1-(2-oxo-1,2,3,4-tetrahydroquinolin-6-yl)-pyrrolidine-3-carboxamide]
NCCNC(=O)c1cc2cc(N3CC[C@](O)(C(=O)NCc4cc(F)cc(Cl)c4)C3=O)ccc2[nH]1 [B132, N-(2-Aminoethyl)-5-[(S)-3-(3-chloro-5-fluorobenzyl-carbamoyl)-3-hydroxy-2-oxo-pyrrolidin-1-yl]-1H-indole-2-carboxamide]
O=C(O)c1cc2cc(N3CC[C@](O)(C(=O)NCc4cc(F)cc(Cl)c4)C3=O)ccc2[nH]1 [B84, 5-[(S)-3-(3-Chloro-5-fluorobenzylcarbamoyl)-3-hydroxy-2-oxopyrrolidin-1-yl]-1H-indole-2-carboxylic acid]
O=C(NCc1cc(F)cc(Cl)c1)[C@@]1(O)CCN(CCc2ccccc2)C1=O [A90, N-(3-Chloro-5-fluorobenzyl)-(S)-3-hydroxy-2-oxo-1-phenethyl-pyrrolidine-3-carboxamide]
O=C(NCCc1cc(F)cc(F)c1)C1(O)CCN(c2ccc3[nH]ccc3c2)C1=O (centres unmarked) [A207, N-[2-(3,5-Difluorophenyl)ethyl]-3-hydroxy-1-(1H-indol-5-yl)-2-oxopyrrolidine-3-carboxamide]
NC(=O)c1cccc(N2CCC(O)(C(=O)NCCc3ccccc3C(F)(F)F)C2=O)c1 (centres unmarked) [A144, N-[2-(2-Trifluoromethylphenyl)-ethyl]-1-(3-carbamoylphenyl)-3-hydroxy-2-oxopyrrolidine-3-carboxamide]
O=C(NC1CCC1)c1cccc(N2CC[C@](O)(C(=O)NCc3cc(F)cc(Cl)c3)C2=O)c1 [A163, N-(3-Chloro-5-fluorobenzyl)-(S)-1-(3-cyclobutylcarbamoyl-phenyl)-3-hydroxy-2-oxo-pyrrolidine-3-carboxamide]
O=C1N(Cc2ccccc2)CCCC1(O)CNCc1cc(F)cc(Cl)c1 (centres unmarked) [B31, 1-Benzyl-3-[(3-chloro-5-fluorobenzylamino)methyl]-3-hydroxypiperidin-2-one]
O=C(NCc1cc(F)cc(Cl)c1)C1(O)CCN(c2cnc3[nH]cnc3c2)C1=O (centres unmarked) [B35, N-(3-Chloro-5-fluorobenzyl)-3-hydroxy-1-(3H-imidazo[4,5-b]-pyridin-6-yl)-2-oxopyrrolidine-3-carboxamide]
NS(=O)(=O)c1ccc(N2CC[C@](O)(C(=O)NCc3cc(F)cc(Cl)c3)C2=O)cc1 [B101, N-(3-Chloro-5-fluorobenzyl)-(S)-3-hydroxy-2-oxo-1-(4-sulfamoyl-phenyl)pyrrolidine-3-carboxamide]
O=C1CCc2cc(N3CC[C@](O)(C(=O)NCc4c(F)ccc(Cl)c4F)C3=O)ccc2N1 [A250, N-(3-Chloro-2,6-difluorobenzyl)-(S)-3-hydroxy-2-oxo-1-(2-oxo-1,2,3,4-tetrahydroquinolin-6-yl)-pyrrolidine-3-carboxamide]
O=C(c1cccc(N2CC[C@](O)(C(=O)NCc3cc(F)cc(Cl)c3)C2=O)c1)N1CCCC1 [A77, N-(3-Chloro-5-fluorobenzyl)-(S)-3-hydroxy-2-oxo-1-[3-(pyrrolidine-1-carbonyl)phenyl]pyrrolidine-3-carboxamide]
O=C(NCc1cc(F)cc(Cl)c1)C1(O)CCN(c2cc(C(F)(F)F)ccc2F)C1=O (centres unmarked) [B26, N-(3-Chloro-5-fluorobenzyl)-1-(2-Fluoro-5-trifluoromethyl-phenyl)-3-hydroxy-2-oxo-pyrrolidine-3-carboxamide]
CC(=O)NS(=O)(=O)c1ccc(N2CCC(O)(C(=O)NCc3cc(F)cc(Cl)c3)C2=O)cc1 (centres unmarked) [B118, N-(3-Chloro-5-fluorobenzyl)-1-(4-acetylsulfamoylphenyl)-3-hydroxy-2-oxopyrrolidine-3-carboxamide]
O=C(NCCc1cc(F)cc(F)c1)[C@@]1(O)CCN(c2ccc3[nH]ccc3c2)C1=O [B110, N-[2-(3,5-Difluorophenyl)ethyl]-(S)-3-hydroxy-1-(1H-indol-5-yl)-2-oxopyrrolidine-3-carboxamide]
NC(=O)Cn1cc(N2CC[C@](O)(C(=O)NCc3cc(F)cc(Cl)c3)C2=O)cn1 [B119, N-(3-Chloro-5-fluorobenzyl)-(S)-1-(1-carbamoylmethyl-1H-pyrazol-4-yl)-3-hydroxy-2-oxo-pyrrolidine-3-carboxamide]
CC(=O)Nc1ccc(N2CCC(O)(C(=O)NCCc3cc(F)cc(Cl)c3)C2=O)cn1 (centres unmarked) [A139, N-[2-(3-Chloro-5-fluorophenyl)-ethyl]-1-(6-acetylaminopyridin-3-yl)-3-hydroxy-2-oxopyrrolidine-3-carboxamide]
N#Cc1ccc(N2CC[C@](O)(C(=O)NCc3cc(F)cc(Cl)c3)C2=O)cn1 [A97, N-(3-Chloro-5-fluorobenzyl)-(S)-1-(6-cyanopyridin-3-yl)-3-hydroxy-2-oxopyrrolidine-3-carboxamide]
